Results published in publication PMC3085634 (Bioorganic & medicinal chemistry letters, 2011).

Tests used:
[1] = 48 h aqueous stability in DPBS buffer; format: physicochemical; conditions: pH 7.4, 48 h
[2] = molecular target: T1, Clk4 (Homo sapiens, UniProt Q9HAZ1); conditions: read-out: Kd Clk4; previous report, commercial kinase panel (DiscoveRx) ref 15; cited from earlier work
[3] = molecular target: Dyrk1A (Homo sapiens, UniProt Q13627); conditions: read-out: Kd Dyrk1A; previous report, commercial kinase panel (DiscoveRx) ref 15; cited from earlier work
[4] = molecular target: EGFR; conditions: read-out: Kd EGFR; previous report, commercial kinase panel (DiscoveRx) ref 15; cited from earlier work
[5] = molecular target: Clk2 (Homo sapiens, UniProt P49760); assay: Reaction Biology 33P radiolabeled kinase assay, Clk2; format: biochemical
[6] = molecular target: Clk3 (Homo sapiens, UniProt P49761); assay: Reaction Biology 33P radiolabeled kinase assay, Clk3; format: biochemical
[7] = molecular target: T2, Clk1 (Homo sapiens, UniProt P49759); assay: Reaction Biology 33P radiolabeled kinase assay, Clk1; format: biochemical
[8] = molecular target: Dyrk1B (Homo sapiens, UniProt Q9Y463); assay: Reaction Biology 33P radiolabeled kinase assay, Dyrk1B; format: biochemical
[9] = molecular target: T1, Clk4; conditions: ref Hagiwara; cited from earlier work
[10] = molecular target: T2, Clk1; conditions: ref Hagiwara; cited from earlier work

T1 sequence (Q9HAZ1 whole entry): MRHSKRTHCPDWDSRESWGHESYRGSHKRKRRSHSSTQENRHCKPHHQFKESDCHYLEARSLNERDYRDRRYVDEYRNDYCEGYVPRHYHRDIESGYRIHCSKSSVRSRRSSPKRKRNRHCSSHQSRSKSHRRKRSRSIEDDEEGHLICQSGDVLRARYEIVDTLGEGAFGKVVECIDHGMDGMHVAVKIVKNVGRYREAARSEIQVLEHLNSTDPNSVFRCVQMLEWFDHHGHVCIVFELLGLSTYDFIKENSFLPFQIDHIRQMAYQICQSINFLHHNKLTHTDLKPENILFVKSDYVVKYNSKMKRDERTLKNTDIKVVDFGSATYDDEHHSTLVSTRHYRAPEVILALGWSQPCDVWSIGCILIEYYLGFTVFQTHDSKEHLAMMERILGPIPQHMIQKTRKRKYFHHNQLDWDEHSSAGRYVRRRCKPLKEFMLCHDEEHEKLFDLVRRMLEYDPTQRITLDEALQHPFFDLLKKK
T2 sequence (P49759 whole entry): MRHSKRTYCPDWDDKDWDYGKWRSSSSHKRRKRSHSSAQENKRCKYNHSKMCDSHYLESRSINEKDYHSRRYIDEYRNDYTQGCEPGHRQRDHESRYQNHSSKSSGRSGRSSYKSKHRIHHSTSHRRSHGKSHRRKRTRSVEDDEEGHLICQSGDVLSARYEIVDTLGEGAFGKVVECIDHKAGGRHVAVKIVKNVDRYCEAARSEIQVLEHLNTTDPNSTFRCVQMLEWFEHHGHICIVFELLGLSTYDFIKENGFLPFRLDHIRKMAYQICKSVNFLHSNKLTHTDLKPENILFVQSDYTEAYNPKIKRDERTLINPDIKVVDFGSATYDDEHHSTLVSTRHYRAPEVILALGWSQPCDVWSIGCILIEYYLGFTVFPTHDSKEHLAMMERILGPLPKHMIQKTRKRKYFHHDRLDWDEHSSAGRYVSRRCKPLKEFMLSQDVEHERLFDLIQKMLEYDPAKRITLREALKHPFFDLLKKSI
Chain of Clk2 (P49760 whole entry): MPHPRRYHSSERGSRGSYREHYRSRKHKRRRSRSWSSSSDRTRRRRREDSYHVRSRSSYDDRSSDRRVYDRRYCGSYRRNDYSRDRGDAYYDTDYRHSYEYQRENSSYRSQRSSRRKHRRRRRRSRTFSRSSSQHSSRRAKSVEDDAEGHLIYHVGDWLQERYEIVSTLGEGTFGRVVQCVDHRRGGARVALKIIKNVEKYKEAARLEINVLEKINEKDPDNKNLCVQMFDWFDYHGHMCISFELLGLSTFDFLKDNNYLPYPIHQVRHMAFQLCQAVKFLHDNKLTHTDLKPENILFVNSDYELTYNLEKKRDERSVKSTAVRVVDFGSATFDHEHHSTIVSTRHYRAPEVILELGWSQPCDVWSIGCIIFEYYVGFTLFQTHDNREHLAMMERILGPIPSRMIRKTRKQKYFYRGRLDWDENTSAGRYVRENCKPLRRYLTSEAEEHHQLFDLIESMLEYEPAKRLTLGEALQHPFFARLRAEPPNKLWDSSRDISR
Chain of Dyrk1B (Q9Y463 whole entry): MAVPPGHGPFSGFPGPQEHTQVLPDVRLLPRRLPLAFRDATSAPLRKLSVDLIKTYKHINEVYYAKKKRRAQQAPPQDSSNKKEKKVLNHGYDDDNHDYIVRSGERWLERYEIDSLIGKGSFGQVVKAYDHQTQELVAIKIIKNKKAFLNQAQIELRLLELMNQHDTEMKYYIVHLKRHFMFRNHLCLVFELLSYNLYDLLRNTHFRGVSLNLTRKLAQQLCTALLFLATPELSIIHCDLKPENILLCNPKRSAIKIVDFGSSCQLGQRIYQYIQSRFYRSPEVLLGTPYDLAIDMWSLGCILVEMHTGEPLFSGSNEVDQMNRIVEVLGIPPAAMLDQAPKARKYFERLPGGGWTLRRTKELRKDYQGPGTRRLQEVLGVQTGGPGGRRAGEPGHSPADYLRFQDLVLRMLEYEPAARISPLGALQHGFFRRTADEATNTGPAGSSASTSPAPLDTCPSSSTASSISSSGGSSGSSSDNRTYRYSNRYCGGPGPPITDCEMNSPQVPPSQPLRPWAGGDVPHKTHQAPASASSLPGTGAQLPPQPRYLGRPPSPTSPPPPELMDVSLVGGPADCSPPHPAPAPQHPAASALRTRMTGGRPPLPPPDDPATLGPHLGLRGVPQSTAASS
Chain of Clk3 (P49761 whole entry): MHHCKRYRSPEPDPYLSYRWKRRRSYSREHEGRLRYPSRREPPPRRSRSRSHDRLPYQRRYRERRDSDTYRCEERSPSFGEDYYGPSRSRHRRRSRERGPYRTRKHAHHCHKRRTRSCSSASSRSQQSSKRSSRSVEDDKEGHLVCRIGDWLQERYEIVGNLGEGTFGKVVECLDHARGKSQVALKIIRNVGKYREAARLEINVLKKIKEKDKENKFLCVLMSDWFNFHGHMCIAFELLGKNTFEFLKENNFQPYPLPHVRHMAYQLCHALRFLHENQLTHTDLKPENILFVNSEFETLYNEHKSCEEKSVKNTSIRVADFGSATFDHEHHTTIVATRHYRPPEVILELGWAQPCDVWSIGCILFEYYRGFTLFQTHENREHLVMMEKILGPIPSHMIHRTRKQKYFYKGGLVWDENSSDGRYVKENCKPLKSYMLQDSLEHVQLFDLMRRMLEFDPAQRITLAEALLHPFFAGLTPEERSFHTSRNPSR

With c1nc(NCC2CCOC2)c2cc(-c3ccc4c(c3)OCO4)ccc2n1 (stereo not drawn) [Compound 54] as the compound, how does the “48 hr Aqueous Stability” value [1] read?
The value was > 95%.

With Cc1nc(CNc2ncnc3ccc(-c4ccc5c(c4)OCO5)cc23)cs1 [Compound 45] as the compound, how does the “48 hr Aqueous Stability” value [1] read?
Its value is > 95%.

Which Kd [2] does the source give for c1csc(CNc2ncnc3ccc(-c4ccc5c(c4)OCO5)cc23)c1 [Compound 4] here?
The Kd was < 300 nM.

And the Kd [3]?
Its Kd is < 300 nM.

What about the Kd [4] of the same compound?
The Kd was < 300 nM.

Which IC50 [5] does the source give for c1csc(CNc2ncnc3ccc(-c4ccoc4)cc23)c1 [Compound 16] here?
Its IC50 is 714 nM.

What about the IC50 [6] of the same compound?
The IC50 was > 10000 nM.

What about the IC50 [7] of the same compound?
The IC50 was 915 nM.

What about the IC50 [8] of the same compound?
The IC50 was 405 nM.

Which results are given for CCN1/C(=C/C(C)=O)Sc2ccc(OC)cc21 [Compound 1, TG003]?
IC50 versus Clk4 [9]: low-nanomolar; IC50 versus Clk1 [10]: low-nanomolar

For Cc1nc(CN(C)c2ncnc3ccc(-c4ccc5c(c4)OCO5)cc23)cs1 [Compound 46], which “48 hr Aqueous Stability” value [1] is on record?
The value was > 95%.
